Results from patent US11008290B2, “Halogenated quinoline derivatives as antimicrobial agents” (University of Florida Research Foundation, Incorporated, priority 2015, dated 2021).
≈ marks a conversion by molar mass, not a printed value. Read-outs that look alike come from different tables or passages of the source. One block for each molecule: values may come before it.

Assays:
[1] = system: MRSE (ATCC 35984) planktonic cells and biofilms; assay: Calgary Biofilm Device (CBD) MBC/MBEC determination; type: cell-based, Staphylococcus epidermidis; settings: for MBC: Staphylococcus epidermidis
Protocol: (§1) Biofilm eradication experiments were performed using the Calgary Biofilm Device to determine MBC/MBEC values for various compounds of interest (Innovotech, product code: 19111). The Calgary device (96-well plate with lid containing 96 total pegs to establish biofilms; 1 peg/well) was inoculated with 125 μL of a mid-log phase culture diluted 1,000-fold in tryptic soy broth with 0.5% glucose (TSBG) to establish bacterial biofilms after incubation at 37° C. for 24 hours. The lid of the Calgary device was then removed, washed and transferred to another 96-well plate containing 2-fold serial dilutions of the test compounds (the “challenge plate”). The total volume of media with compound in each well in the challenge plate was 150 μL. The Calgary device was then incubated at 37° C. for 24 hours. The lid was then removed from the challenge plate and MBC/MBEC values were determined using different final assays. […] The MBC values were determined as the concentration giving a lack of visible bacterial growth (e.g., turbidity). For determination of MBEC values, the Calgary device lid (with attached pegs/treated biofilms) was transferred to a new 96-well plate containing 150 μL of fresh TSBG media in each well and incubated for 24 hours at 37° C. to allow viable biofilms to grow and disperse resulting in turbidity after the incubation period. […] In select experiments, treated pegs from the Calgary device were removed from lead biofilm eradicators after final incubation, sonicated for 30 minutes in PBS and plated out to determine biofilm cell killing (e.g., colony forming unit per milliliter, CFU/mL).

[2] = system: vancomycin-resistant Enterococcus faecium (VRE, ATCC 700221); assay: Minimum inhibitory concentration (MIC) susceptibility assay, broth microdilution; type: cell-based; settings: read-out: VRE MIC
Protocol: (§2) The minimum inhibitory concentration (MIC) for each compound was determined by the broth microdilution method as recommended by the Clinical and Laboratory Standards Institute (CLSI). In a 96-well plate, eleven two-fold serial dilutions of each compound were made in a final volume of 100 μL Luria Broth. Each well was inoculated with ˜10^5 bacterial cells at the initial time of incubation, prepared from a fresh log phase culture (OD600 of 0.5 to 1.0 depending on bacterial strain). […] The concentration range tested for each compound during this study was 0.10 to 100 μM. DMSO served as the vehicle and negative control in each microdilution MIC assay. DMSO was serially diluted with a top concentration of 1% v/v. Bacterial strains used: methicillin-resistant Staphylococcus aureus-2 (MRSA-2; clinical isolate from Shands Hospital in Gainesville, Fla.), methicillin-resistant Staphylococcus epidermidis (MRSE; ATCC 35984), vancomycin-resistant Enterococcus faecium (VRE, ATCC 700221).

human red blood cells = assay: Hemolysis assay; type: cell-based
Protocol: Freshly drawn human red blood cells (hRBC with ethylenediaminetetraacetic acid (EDTA) as an anticoagulant) were washed with Tris-buffered saline (0.01M Tris-base, 0.155M sodium chloride (NaCl), pH 7.2) and centrifuged for 5 minutes at 3500 rpm. The washing was repeated three times with the buffer. In 96-well plate, the test compounds were added to the buffer. […] The plate was then incubated for 1 hour at 37° C. After incubation, the plate is centrifuged for 5 minutes at 3500 rpm. Then 80 μL of the supernatant were transferred to another 96-well plate and the Optical Density (OD) was read at 405 nm. […] The percent of hemolysis was calculated as (OD405 of the compound-OD405 DMSO)/(OD405 Triton X-OD405 buffer).

[3] = system: VRE (ATCC 700221) planktonic cells and biofilms; assay: Calgary Biofilm Device (CBD) MBC/MBEC determination; type: cell-based, Enterococcus faecium; settings: Enterococcus
Protocol: as §1

MRSA BAA-1707 = assay: as above; type: cell-based, Staphylococcus aureus; settings: for MBC: Staphylococcus aureus, read-out: MRSA BAA-1707 MBC; for MRSA BAA-1707 MBEC: biofilm eradication, second value of cell
Protocol: as §1

[4] = system: MRSA-2 planktonic cells and biofilms; assay: as above; type: cell-based, Staphylococcus aureus; settings: CBD; for MBC: planktonic killing, first value of MBC/MBEC cell
Protocol: as §1

[5] = system: methicillin-resistant Staphylococcus aureus-2 (MRSA-2; clinical isolate); assay: Minimum inhibitory concentration (MIC) susceptibility assay, broth microdilution; type: cell-based
Protocol: as §2

[6] = system: methicillin-resistant Staphylococcus epidermidis (MRSE; ATCC 35984); assay: as above; type: cell-based; settings: read-out: MRSE MIC
Protocol: as §2

[7] = Table 2, human red blood cells, 1 hour at 37° C.
[8] = Table 2, read-out: MRSA-2 Clinical Isolate MBC
[9] = Staphylococcus, MRSA, Table 2, 2 to 6 independent experiments, read-out: MRSA-2 MIC
[10] = Staphylococcus epidermidis, Table 2, ATCC 35984
[11] = Table 4, planktonic killing, CBD, first value of cell
[12] = Table 3, planktonic killing, CBD, first value of cell, read-out: MRSE MBC
[13] = Staphylococcus, MRSA, Table 3, at least three independent experiments, read-out: MRSA-2 MIC
[14] = Table 3, planktonic killing, CBD, first value of cell, footnote c = lowest concentration tested, read-out: VRE MBC
[15] = Staphylococcus aureus, MRSA, Table 3, read-out: MRSA-2 MBC
[16] = Staphylococcus epidermidis, Table 3

SMILES: CN[C@H](CC(C)C)C(=O)N[C@H]1C(=O)N[C@@H](CC(N)=O)C(=O)N[C@H]2C(=O)N[C@H]3C(=O)N[C@H](C(=O)N[C@H](C(=O)O)c4cc(O)cc(O)c4-c4cc3ccc4O)[C@H](O)c3ccc(c(Cl)c3)Oc3cc2cc(c3O[C@@H]2O[C@H](CO)[C@@H](O)[C@H](O)[C@H]2O[C@H]2C[C@](C)(N)[C@H](O)[C@H](C)O2)Oc2ccc(cc2Cl)[C@H]1O [Vancomycin, reference compound]
- MBC ([1]; read-out: MRSE ATCC 35984 MBC): 3 µM (≈ 4.35 µg/mL)
- MBC ([1]; read-out: MRSE MBC): 3 µM (≈ 4.35 µg/mL)
- MIC ([2]; Table 3): >100 µM
- MIC [2]: > 100 µM
- % Haemolysis at 200 μM (human red blood cells; [7]): ≤1%
- % Haemolysis at 200 μM (human red blood cells; Table 3, human red blood cells): ≤1%
- MBC ([3]; read-out: VRE ATCC 700221 MBC): > 200 µM
- MBC ([3]; read-out: VRE MBC): > 200 µM
- MBC (MRSA BAA-1707): 5.9 µM (≈ 8.55 µg/mL)
- MRSA BAA-1707 MBEC (MRSA BAA-1707; Table 4, CBD): unable to eradicate
- MBC ([4]; Staphylococcus aureus, MRSA, read-out: MRSA-2 Clinical Isolate MBC, Table 2): 3 to 62.5 µM (≈ 4.35 to 90.6 µg/mL)
- MBC ([4]; Staphylococcus aureus, MRSA, read-out: MRSA-2 MBC, Table 3): 3 µM (≈ 4.35 µg/mL)
- MBC [4, 8]: 3.0 µM (≈ 4.35 µg/mL)

SMILES: CC(=O)NC[C@H]1CN(c2ccc(N3CCOCC3)c(F)c2)C(=O)O1 [Linezolid, reference compound]
- MIC [5, 9]: 3.13 µM (≈ 1.06 µg/mL)
- MIC ([5]; Table 3, at least three independent experiments, read-out: MRSA-2 MIC): 3.13 µM (≈ 1.06 µg/mL)
- MIC ([2]; Table 2, ATCC 700221): 3.13 µM (≈ 1.06 µg/mL)
- MIC ([2]; Table 3): 3.13 µM (≈ 1.06 µg/mL)
- MIC [6, 10]: 3.13 µM (≈ 1.06 µg/mL)
- MIC ([6]; Table 3): 3.13 µM (≈ 1.06 µg/mL)
- % Haemolysis at 200 μM (human red blood cells; [7]): ≤1%
- % Haemolysis at 200 μM (human red blood cells; Table 3, human red blood cells): ≤1%
- MBC (MRSA BAA-1707; [11]): 31.3 µM (≈ 10.6 µg/mL)
- MRSA BAA-1707 MBEC (MRSA BAA-1707; Table 4, CBD): unable to eradicate

SMILES: CCCc1ccc2c(Br)cc(Br)c(O)c2n1 [A-HQ-3]
- MBC [1, 12]: 9.38 µM (≈ 3.24 µg/mL)
- MIC [5, 13]: 0.78 µM (≈ 0.269 µg/mL)
- MIC ([2]; Table 3): 0.78 µM (≈ 0.269 µg/mL)
- % Haemolysis at 200 μM (human red blood cells; human, 1 h, pH 7.2): ≤1%
- MBC [3, 14]: 2 µM (≈ 0.69 µg/mL)
- MBC (MRSA BAA-1707; [11]): 31.3 µM (≈ 10.8 µg/mL)
- MBC [4, 15]: 125 µM (≈ 43.1 µg/mL)

SMILES: O=Cc1ccc2c(Br)cc(Br)c(O)c2n1 [Compound 2, 5,7-dibromo-8-hydroxyquinoline-2-carbaldehyde]
- melting point: 154 to 156 °C

SMILES: Oc1c(Br)cc(Br)c2ccc(CNc3ccccc3Br)nc12 [RA-HQ-16]
- MBC [1, 12]: 46.9 µM (≈ 22.8 µg/mL)
- MIC [5, 13]: 1.56 µM (≈ 0.76 µg/mL)
- MIC ([2]; Table 3): 0.78 µM (≈ 0.38 µg/mL)
- MIC [6, 16]: 0.2 µM (≈ 0.0974 µg/mL)
- % Haemolysis at 200 μM (human red blood cells; human, 1 h, pH 7.2): ≤1%
- MBC [3, 14]: 7.8 µM (≈ 3.8 µg/mL)
- MBC (MRSA BAA-1707; [11]): 93.8 µM (≈ 45.7 µg/mL)
- MBC [4, 15]: 188 µM (≈ 91.6 µg/mL)

SMILES: CC(C)Cc1ccc2c(Br)cc(Br)c(O)c2n1 [A-HQ-5]
- MIC [5, 13]: 0.78 µM (≈ 0.28 µg/mL)
- MIC ([2]; Table 3): 100 µM (≈ 35.9 µg/mL)
- % Haemolysis at 200 μM (human red blood cells; human, 1 h, pH 7.2): 12.3%
- MBC (MRSA BAA-1707; [11]): 31.3 µM (≈ 11.2 µg/mL)

SMILES: Oc1c(Br)cc(Br)c2ccc(CNc3ccc(F)cc3)nc12 [RA-HQ-12]
- MBEC:MBC ratio ([1]; MRSE 35984, CBD): ~1
- MBC [1, 12]: 3.9 µM (≈ 1.66 µg/mL)
- MIC [5, 13]: 0.39 µM (≈ 0.166 µg/mL)
- MIC ([2]; Table 3): 0.78 µM (≈ 0.332 µg/mL)
- MIC [6, 16]: 0.39 µM (≈ 0.166 µg/mL)
- % Haemolysis at 200 μM (human red blood cells; human, 1 h, pH 7.2): ≤1%
- MBC [3, 14]: 1 µM (≈ 0.426 µg/mL)
- fold more potent than HQ-1 (MBEC) (MRSA BAA-1707; MRSA BAA-1707): 6 fold
- MBC (MRSA BAA-1707; [11]): 15.6 µM (≈ 6.65 µg/mL)
- MBC [4, 15]: 31.3 µM (≈ 13.3 µg/mL)

SMILES: CCCCCCCCCC(=O)N[C@@H](Cc1c[nH]c2ccccc12)C(=O)N[C@H](CC(N)=O)C(=O)N[C@@H](CC(=O)O)C(=O)N[C@@H]1C(=O)NCC(=O)N[C@@H](CCCN)C(=O)N[C@@H](CC(=O)O)C(=O)N[C@H](C)C(=O)N[C@@H](CC(=O)O)C(=O)NCC(=O)N[C@H](CO)C(=O)N[C@@H]([C@H](C)CC(=O)O)C(=O)N[C@@H](CC(=O)c2ccccc2N)C(=O)O[C@@H]1C [Daptomycin, reference compound]
- MIC [6, 10]: 12.5 µM (≈ 20.3 µg/mL)
- MIC ([6]; Table 3): 12.5 µM (≈ 20.3 µg/mL)
- % Haemolysis at 200 μM (human red blood cells; human, 1 h, pH 7.2): 1.7%
- MBC (MRSA BAA-1707; [11]): 125 µM (≈ 203 µg/mL)
- MRSA BAA-1707 MBEC (MRSA BAA-1707; Table 4, CBD): unable to eradicate
- MBC [4, 15]: 62.5 µM (≈ 101 µg/mL)
- MBC [4, 8]: 62.5 µM (≈ 101 µg/mL)

More lines, main results first:

- MIC [5, 9]: 0.78 µM (≈ 0.318 µg/mL)
- MIC ([5]; Staphylococcus, MRSA, read-out: MIC): 1.13 µM (≈ 0.461 µg/mL)
- MIC ([2]; 18 h, Table 2, ATCC 700221): 0.39 to 0.78 µM (≈ 0.159 to 0.318 µg/mL)
- MIC ([2]; Table 2, ATCC 700221): 0.78 µM (≈ 0.318 µg/mL)
- MIC ([6]; Staphylococcus epidermidis, 18 h, Table 2, ATCC 35984): 0.15 to 0.3 µM (≈ 0.0612 to 0.122 µg/mL)
- MIC [6, 10]: 0.15 µM (≈ 0.0612 µg/mL)
SMILES: Oc1c(Br)cc(Br)c2ccc(CNc3ccccc3)nc12 [HQ-3]
- MBC ([1]; Table 2, planktonic killing, CBD, first value of cell, read-out: MRSE ATCC 35984 MBC): 7.8 µM (≈ 3.18 µg/mL)
- MBC ([3]; Table 2, planktonic killing, CBD, first value of cell, read-out: VRE ATCC 700221 MBC): 7.8 µM (≈ 3.18 µg/mL)
- MBC (MRSA BAA-1707; [11]): 62.5 µM (≈ 25.5 µg/mL)
- MBC ([4]; Staphylococcus aureus, MRSA, Table 2, read-out: MRSA-2 Clinical Isolate MBC): 125 µM (≈ 51 µg/mL)
- MRSA-2 MBEC ([4]; Table 3, biofilm eradication, second value of MBC/MBEC cell): equipotent biofilm eradication activities

- melting point: 172 to 174 °C
SMILES: N#Cc1ccc2c(Br)cc(Br)c(O)c2n1 [HQ-8, 5,7-dibromo-8-hydroxyquinoline-2-carbonitrile]

- melting point: 131 to 133 °C
SMILES: OCc1ccc2c(Br)cc(Br)c(O)c2n1 [HQ-11, 5,7-dibromo-2-(hydroxymethyl)quinolin-8-ol]

- melting point: 172 to 174 °C
SMILES: N=C(N)c1ccc2c(Br)cc(Br)c(O)c2n1 [HQ-14, 5,7-dibromo-8-hydroxyquinoline-2-carboximidamide]

- melting point: 114 to 116 °C
SMILES: CC(O)c1ccc2c(Br)cc(Br)c(O)c2n1 (stereo not drawn) [HQ-13, 5,7-dibromo-2-(1-hydroxyethyl)-8-hydroxyquinoline]
